19 compounds from patent US20250282799A1, “SUBSTITUTED PYRIDO[4,3-d]PYRIMIDINES AS KRAS MODULATORS” (Alterome Therapeutics, Inc., priority 2023, published 2025) can be followed below.

The test system of this experiment is KRAS G12V dependent lung adenocarcinoma cell line, NCI-H441. Nature of the experiment: Cellular pERK (Thr202/Tyr204) FRET/HTRF assay. It counts as cell-based. The note with it: Homo sapiens, NCI-H441, cellular pERK (Thr202/Tyr204) HTRF, NCI-H441 cells. The method in brief:
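NCI-H441, overnight plating → cpd 1 hr, 37 °C/5% CO2; DMSO neg ctrl. Lyse (phosphatase inhibitors), add donor/acceptor Abs, RT incubation, HTRF read. IC50 by curve fit.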

As a reminder, the IC50 is the concentration that inhibits the measured activity by half.

The structures appear in SMILES notation.

`[2H]c1c(F)c(C#C)c2c(-c3ncc4c(N5CCOC[C@H]6[C@H](F)[C@H]65)nc(OC([2H])([2H])[C@@]56CCCN5C[C@H](F)C6)nc4c3F)cc(N)cc2c1[2H]` [Example 273, 5-ethynyl-6-fluoro-4-(8-fluoro-4-((1S,7S,8S)-8-fluoro-5-oxa-2-azabicyclo[5.1.0]octan-2-yl)-2-(((2R,7aS)-2-fluorotetrahydro-1H-pyrrolizin-7a(5H)-yl)methoxy-d2)pyrido[4,3-d]pyrimidin-7-yl)naphthalen-7,8-d2-2-amine] yielded an IC50 of less than 50 nM. The figure for `[2H]C([2H])(Oc1nc(N2CCOC[C@H]3[C@H](F)[C@H]32)c2cnc(-c3cc(N)cc4ccc(F)c(C#C)c34)c(F)c2n1)[C@@]12CCCN1C[C@H](C#N)C2` [Example 276, (2R,7aS)-7a-(((7-(3-amino-8-ethynyl-7-fluoronaphthalen-1-yl)-8-fluoro-4-((1S,7S,8S)-8-fluoro-5-oxa-2-azabicyclo[5.1.0]octan-2-yl)pyrido[4,3-d]pyrimidin-2-yl)oxy)methyl-d2)hexahydro-1H-pyrrolizine-2-carbonitrile] is less than 50 nM.

Regarding `C#Cc1c(F)ccc2cc(N)cc(-c3ncc4c(N5CCOC[C@H]6[C@H](F)[C@H]65)nc(OC[C@@]56CCCN5[C@H](C)[C@H](F)C6)nc4c3F)c12` [Example 277, 5-ethynyl-6-fluoro-4-(8-fluoro-2-(((2R,3R,7aS)-2-fluoro-3-methyltetrahydro-1H-pyrrolizin-7a(5H)-yl)methoxy)-4-((1S,7S,8S)-8-fluoro-5-oxa-2-azabicyclo[5.1.0]octan-2-yl)pyrido[4,3-d]pyrimidin-7-yl)naphthalen-2-amine], the IC50 was less than 50 nM. In the case of `C#Cc1c(F)ccc2cc(N)cc(-c3ncc4c(N5CCOC[C@H]6[C@H](F)[C@H]65)nc(OC[C@@]56CCCN5[C@@H](C)[C@H](F)C6)nc4c3F)c12` [Example 278, 5-ethynyl-6-fluoro-4-(8-fluoro-2-(((2R,3S,7aS)-2-fluoro-3-methyltetrahydro-1H-pyrrolizin-7a(5H)-yl)methoxy)-4-((1S,7S,8S)-8-fluoro-5-oxa-2-azabicyclo[5.1.0]octan-2-yl)pyrido[4,3-d]pyrimidin-7-yl)naphthalen-2-amine], the half-maximal inhibitory concentration (IC50) was less than 50 nM. In the case of `[2H]C([2H])(Oc1nc(N2CCOC[C@H]3[C@H](F)[C@H]32)c2cnc(-c3c(F)c(N)c(F)c(C)c3C(F)(F)F)c(F)c2n1)[C@@]12CCCN1C[C@H](F)C2` [Example 279, 2,6-difluoro-3-(8-fluoro-4-((1S,7S,8S)-8-fluoro-5-oxa-2-azabicyclo[5.1.0]octan-2-yl)-2-(((2R,7aS)-2-fluorotetrahydro-1H-pyrrolizin-7a(5H)-yl)methoxy-d2)pyrido[4,3-d]pyrimidin-7-yl)-5-methyl-4-(trifluoromethyl)aniline], the IC50 was 50 to 500 nM. As to `C#Cc1c(F)ccc2cc(O)cc(-c3ncc4c(N5CCCO[C@@H]6C[C@@H]65)nc(OC[C@H]5CCCN5C)nc4c3F)c12` [Example 280, 4-(4-((1R,7S)-2-oxa-6-azabicyclo[5.1.0]octan-6-yl)-8-fluoro-2-(((R)-1-methylpyrrolidin-2-yl)methoxy)pyrido[4,3-d]pyrimidin-7-yl)-5-ethynyl-6-fluoronaphthalen-2-ol], the half-maximal inhibitory concentration (IC50) is 50 to 500 nM.

`C#Cc1c(F)ccc2cc(O)cc(-c3ncc4c(N5CCCO[C@H]6C[C@H]65)nc(OC[C@@]5(C)CCCN5)nc4c3F)c12` [Example 281, 4-(4-((1S,7R)-2-oxa-6-azabicyclo[5.1.0]octan-6-yl)-8-fluoro-2-(((R)-2-methylpyrrolidin-2-yl)methoxy)pyrido[4,3-d]pyrimidin-7-yl)-5-ethynyl-6-fluoronaphthalen-2-ol] registered an IC50 of 500 to 10000 nM.

The compound `C#Cc1c(F)ccc2cc(O)cc(-c3ncc4c(N5CCCO[C@@H]6C[C@@H]65)nc(OC[C@@]5(C)CCCN5)nc4c3F)c12` [Example 282, 4-(4-((1R,7S)-2-oxa-6-azabicyclo[5.1.0]octan-6-yl)-8-fluoro-2-(((R)-2-methylpyrrolidin-2-yl)methoxy)pyrido[4,3-d]pyrimidin-7-yl)-5-ethynyl-6-fluoronaphthalen-2-ol] came in with an IC50 of 500 to 10000 nM. `C#Cc1c(F)ccc2cc(O)cc(-c3ncc4c(N5CCCO[C@H]6C[C@H]65)nc(OC[C@@]5(C)CCCN5C)nc4c3F)c12` [Example 283, 4-(4-((1S,7R)-2-oxa-6-azabicyclo[5.1.0]octan-6-yl)-2-(((R)-1,2-dimethylpyrrolidin-2-yl)methoxy)-8-fluoropyrido[4,3-d]pyrimidin-7-yl)-5-ethynyl-6-fluoronaphthalen-2-ol]: the IC50 is less than 50 nM.

For `C#Cc1c(F)ccc2cc(O)cc(-c3ncc4c(N5CCOC[C@H]6[C@H](F)[C@H]65)nc(OC[C@H]5CCCN5C)nc4c3F)c12` [Example 284, 5-ethynyl-6-fluoro-4-(8-fluoro-4-((1S,7S,8S)-8-fluoro-5-oxa-2-azabicyclo[5.1.0]octan-2-yl)-2-(((R)-1-methylpyrrolidin-2-yl)methoxy)pyrido[4,3-d]pyrimidin-7-yl)naphthalen-2-ol], the IC50 was less than 50 nM. On to `C#Cc1c(F)ccc2cc(O)cc(-c3ncc4c(N5CCOC[C@H]6[C@H](F)[C@H]65)nc(OC[C@@H]5CCCN5C)nc4c3F)c12` [Example 285, 5-ethynyl-6-fluoro-4-(8-fluoro-4-((1S,7S,8S)-8-fluoro-5-oxa-2-azabicyclo[5.1.0]octan-2-yl)-2-(((S)-1-methylpyrrolidin-2-yl)methoxy)pyrido[4,3-d]pyrimidin-7-yl)naphthalen-2-ol], for which the IC50 was less than 50 nM.

`[2H]C([2H])(Oc1nc(N2CCOC[C@H]3[C@H](F)[C@H]32)c2cnc(-c3cc(N)cc4ccc(F)c(C#C)c34)c(F)c2n1)[C@@]12CCCN1C[C@@H](C#N)C2` [Example 286, (2S,7aS)-7a-(((7-(3-amino-8-ethynyl-7-fluoronaphthalen-1-yl)-8-fluoro-4-((1S,7S,8S)-8-fluoro-5-oxa-2-azabicyclo[5.1.0]octan-2-yl)pyrido[4,3-d]pyrimidin-2-yl)oxy)methyl-d2)hexahydro-1H-pyrrolizine-2-carbonitrile]: the half-maximal inhibitory concentration (IC50) is less than 50 nM. The compound `C#Cc1c(F)ccc2cc(N)cc(-c3ncc4c(N5CCOC[C@H]6[C@H](F)[C@H]65)nc(OC[C@@]56CC[C@@H](C)N5C[C@H](F)C6)nc4c3F)c12` [Example 287, 5-Ethynyl-6-fluoro-4-(8-fluoro-2-(((2R,5R,7aS)-2-fluoro-5-methyltetrahydro-1H-pyrrolizin-7a(5H)-yl)methoxy)-4-((1S,7S,8S)-8-fluoro-5-oxa-2-azabicyclo[5.1.0]octan-2-yl)pyrido[4,3-d]pyrimidin-7-yl)naphthalen-2-amine] yielded an IC50 of less than 50 nM. The figure for `C#Cc1c(F)ccc2cc(N)cc(-c3ncc4c(N5CCOC[C@H]6[C@H](F)[C@H]65)nc(OC[C@@H]5CCCN5C)nc4c3F)c12` [Example 288, 5-ethynyl-6-fluoro-4-(8-fluoro-4-((1S,7S,8S)-8-fluoro-5-oxa-2-azabicyclo[5.1.0]octan-2-yl)-2-(((S)-1-methylpyrrolidin-2-yl)methoxy)pyrido[4,3-d]pyrimidin-7-yl)naphthalen-2-amine] is less than 50 nM. The figure for `[2H]C([2H])(Oc1nc(N2CCOC[C@H]3[C@H](F)[C@H]32)c2cnc(-c3cc(N)c(F)c(Cl)c3C(F)(F)F)c(F)c2n1)[C@@]12CCCN1C[C@H](F)C2` [Example 289, 3-chloro-2-fluoro-5-(8-fluoro-4-((1S,7S,8S)-8-fluoro-5-oxa-2-azabicyclo[5.1.0]octan-2-yl)-2-(((2R,7aS)-2-fluorotetrahydro-1H-pyrrolizin-7a(5H)-yl)methoxy-d2)pyrido[4,3-d]pyrimidin-7-yl)-4-(trifluoromethyl)aniline] is less than 50 nM. `[2H]C([2H])(Oc1nc(N2CCOC[C@H]3[C@H](Cl)[C@H]32)c2cnc(-c3cccc4ccc(F)c(C#C)c34)c(F)c2n1)[C@@]12CCCN1C[C@H](F)C2` [Example 290, (1S,7S,8S)-8-chloro-2-(7-(8-ethynyl-7-fluoronaphthalen-1-yl)-8-fluoro-2-(((2R,7aS)-2-fluorotetrahydro-1H-pyrrolizin-7a(5H)-yl)methoxy-d2)pyrido[4,3-d]pyrimidin-4-yl)-5-oxa-2-azabicyclo[5.1.0]octane] registered a 50% inhibitory concentration (IC50) of less than 50 nM. The figure for `[2H]C([2H])(Oc1nc(N2CCOC[C@H]3[C@H](F)[C@H]32)c2c(Cl)nc(-c3cc(N)cc4ccc(F)c(C#C)c34)c(F)c2n1)[C@@]12CCCN1C[C@H](F)C2` [Example 291, 4-(5-Chloro-8-fluoro-4-((1S,7S,8S)-8-fluoro-5-oxa-2-azabicyclo[5.1.0]octan-2-yl)-2-(((2R,7aS)-2-fluorotetrahydro-1H-pyrrolizin-7a(5H)-yl)methoxy-d2)pyrido[4,3-d]pyrimidin-7-yl)-5-ethynyl-6-fluoronaphthalen-2-amine] is less than 50 nM; for `[2H]C([2H])(Oc1nc(N2CCCOC3C2C3(Cl)Cl)c2cnc(-c3cc(N)cc4ccc(F)c(C#C)c34)c(F)c2n1)[C@@]12CCCN1C[C@H](F)C2` (stereo partly drawn) [Example 292, 4-(4-(8,8-dichloro-2-oxa-6-azabicyclo[5.1.0]octan-6-yl)-8-fluoro-2-(((2R,7aS)-2-fluorotetrahydro-1H-pyrrolizin-7a(5H)-yl)methoxy-d2)pyrido[4,3-d]pyrimidin-7-yl)-5-ethynyl-6-fluoronaphthalen-2-amine] it is 50 to 500 nM; for `C#Cc1c(Cl)ccc2cc(O)cc(-c3ncc4c(N5CCOC[C@H]6[C@H](F)[C@H]65)nc(OC[C@@H]5CCCN5C)nc4c3F)c12` [Example 294, 6-chloro-5-ethynyl-4-(8-fluoro-4-((1S,7S,8S)-8-fluoro-5-oxa-2-azabicyclo[5.1.0]octan-2-yl)-2-(((S)-1-methylpyrrolidin-2-yl)methoxy)pyrido[4,3-d]pyrimidin-7-yl)naphthalen-2-ol] it is less than 50 nM.
